Measurements taken from patent publication US8278320B2, “Azabicyclo[2.2.1]heptane compounds as alpha-7 nicotinic acetylcholine receptor ligands” (Bristol-Myers Squibb Company, priority 2009, dated 2012).
Like-named read-outs stand apart in the source and are kept apart here.

Target: α-7 nicotinic ACh receptor ion channel expressed in mammalian HEK 293 cells (Rattus norvegicus, UniProt Q05941)
Assay: Ca2+-sensitive, fluorescence-based FLIPR assay for α-7 nicotinic acetylcholine receptor channel function (agonist activity)
Assay type: cell-based
Design: expressed in transfected cells
Settings: Ca2+ flux, HEK-293 cells, Fluo-4
Protocol: I) α7 Nicotinic Acetycholine Receptor Binding. Membranes were prepared for binding using HEK293 cells stably expressing the rat α7 nicotinic acetycholine receptor (rat α7 nAChR). Cells were homogenized at 4° C. in hypotonic lysis buffer consisting of 10 mM Tris (pH 7.4), 5 mM EDTA and protease inhibitors and centrifuged at 32000×g for 20 minutes. The pellet was washed once in membrane wash buffer consisting of 50 mM Tris (pH 7.4), 1 mM EDTA and protease inhibitors and centrifuged at 32000×g for 20 minutes. This pellet was then resuspended in assay buffer consisting 50 mM KH2PO4 (pH 7.4 at 25° C.), 1 mM EDTA, 0.005% Triton-X 100 and 0.1% (v/v) Sigma Protease Inhibitor Cocktail. Aliquots were then frozen in dry ice/ethanol and kept at −80° C. until the day of the assay. II) A Ca^2+-Sensitive, Fluorescence-Based Assay α-7 for Nicotinic Acetylcholine Receptor Channel Function In Mammalian Cells (“FLIPR”). Summary: Lead compounds are evaluated for agonist activity at α-7, α3β4, α4αβ2, and α1β1δ1ε sub-types of nicotinic ACh receptor ion channels expressed in mammalian HEK 293 cells. Agonist potency and efficacy values are determined from kinetic fluorescence Ca^2+ influx measurements made using a 384 well FLIPR (Fluorescence Image Plate Reader). […] In this assay, channel expressing HEK cell lines seeded in 384 well assay plates are loaded with a membrane permeant fluorescent Ca^2+ indicator dye, whose 510 nm green emission signal increases in response to elevation of intracellular Ca^2+ concentration. The basal fluorescence from the cells is monitored in real time, followed by the acute addition of test compounds.
Materials and Methods: Reagents: The acetomethoxy (AM) ester of the Ca^2+ indicator dye Fluo-4 was obtained from InVitrogen, (Carlsbad, Calif.). Acetylcholine and all buffer constituents were purchased from Sigma Chemical Company, St. Louis, Mo. G418 and Minimal Essential Medium were purchased from InVitrogen Life Technologies, Carlsbad, Calif. Fetal bovine serum was purchased from (InVitrogen, Carlsbad, Calif.).
Cell Culture: HEK-293 cells were grown in Minimal Essential Medium containing 10% (v/v) fetal bovine serum at 37° C. in a 5% CO2 incubator. HEK-293 cells stably expressing the ion channels were grown in the same medium with the addition of 500 μg/ml G418.
Ca^2+ flux assays of Ca^2+ channels expressed in HEK-293 cells: HEK-293 cells expressing the ion channels of interest were plated in 384 well, black-walled, clear-bottomed, poly-D-lysine coated plates at a density of ˜20,000 cells/well in 20 μl of Minimal Essential Medium containing 10% (v/v) fetal bovine serum and incubated for 2 days at 29° C. in a 5% CO2 incubator. Prior to assay, cells were loaded with the Fluo-4 AM ester. […] Dye loading was allowed to proceed for 90 minutes at room temperature at which time the dye loading solution was removed and replaced with 40 μl/well of Hanks buffer. Cells loaded with dye were loaded onto a FLIPR384 (Molecular Devices, Sunnyvale, Calif.). Fluo-4 dye was excited using the 488 nm line of an argon laser. Emission was filtered using a 540+/−30 nm bandpass filter. For evaluation of the effects of test compounds using the Ca^2+ flux assay, compounds to be tested were provided in assay ready plates. For nicotinic receptor ion channel expressing cells, the assay was initiated by the addition of 20 μl/well of Hanks buffer containing test compounds. For all assays, data were collected at 1 Hz for 10 seconds (baseline), at which time the compound containing stimulus buffers are added, and further measurements collected at 0.33 Hz for 3 min.
Data Analysis: The statistical robustness of the nicotinic receptor Ca^2+ flux assays is determined from blanks and totals wells. […] The raw fluorescence units data files generated on the FLIPR plate reader are automatically exported and processed by in-house data analysis tools.

[1] = FLIPR α7 activity rating (EC50, nM), agonist potency class
[2] = agonist potency class, read-out: FLIPR α7 activity rating (EC50)
[3] = FLIPR α7-HI (EC50, nM), agonist potency

α-7 nicotinic ACh receptor ion channel expressed in mammalian HEK 293 cells, sequence (Q05941 23-502): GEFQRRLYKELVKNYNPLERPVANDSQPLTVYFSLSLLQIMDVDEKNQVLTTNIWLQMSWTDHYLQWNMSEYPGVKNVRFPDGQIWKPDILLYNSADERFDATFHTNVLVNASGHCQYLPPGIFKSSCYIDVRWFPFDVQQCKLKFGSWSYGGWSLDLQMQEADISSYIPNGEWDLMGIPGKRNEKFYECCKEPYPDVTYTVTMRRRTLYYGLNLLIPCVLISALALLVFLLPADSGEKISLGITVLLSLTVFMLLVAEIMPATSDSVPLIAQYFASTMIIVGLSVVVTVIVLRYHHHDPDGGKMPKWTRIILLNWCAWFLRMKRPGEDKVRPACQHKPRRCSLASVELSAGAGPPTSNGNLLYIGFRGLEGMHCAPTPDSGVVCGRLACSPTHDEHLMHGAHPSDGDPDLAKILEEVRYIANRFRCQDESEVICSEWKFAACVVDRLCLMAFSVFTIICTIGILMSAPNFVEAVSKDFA

Structure (SMILES)	EC50 [1] [nM]	further results
Clc1cnc(NC2=NC[C@@]3(C[N@@]4CC[C@@H]3C4)O2)cn1 [Example 14, (3R,4R)—N-(5-Chloropyrazin-2-yl)-4′H-1-azaspiro[bicyclo[2.2.1]heptane-3,5′-oxazol]-2′-amine]	100 to 1000	
c1ccc2cc(NC3=NCC4(CN5CCC4C5)O3)ncc2c1 (single isomer, unassigned) [Example 7b]	< 100	
Clc1ccc2oc(NC3=NC[C@@]4(C[N@@]5CC[C@@H]4C5)O3)nc2c1 [Example 25, (3R,4R)—N-(5-Chlorobenzo[d]oxazol-2-yl)-4′H-1-azaspiro[bicyclo[2.2.1]heptane-3,5′-oxazol]-2′-amine]		EC50 [2]: < 100 nM
COc1ccc2nc(NC3=NC[C@@]4(C[N@@]5CC[C@@H]4C5)O3)sc2n1 (relative stereo) [Example 5, (3R*,4R*)—N-(5-Methoxythiazolo[5,4-b]pyridin-2-yl)-4′H-1-azaspiro[bicyclo[2.2.1]heptane-3,5′-oxazol]-2′-amine]	1000 to 100000	EC50 [3]: 311 nM
c1ccc2cc(NC3=NC[C@@]4(C[N@@]5CC[C@@H]4C5)O3)ncc2c1 (relative stereo) [Example 7, (3R*,4R*)—N-(Isoquinolin-3-yl)-4′H-1-azaspiro[bicyclo[2.2.1]heptane-3,5′-oxazol]-2′-amine]	< 100	
Cc1cccc(-c2cnc(NC3=NC[C@@]4(C[N@@]5CC[C@@H]4C5)O3)nc2)c1 (relative stereo) [Example 9, (3R*,4R*)—N-(5-m-Tolylpyrimidin-2-yl)-4′H-1-azaspiro[bicyclo[2.2.1]heptane-3,5′-oxazol]-2′-amine]		EC50 [2]: 1000 to 100000 nM; EC50 (agonist potency, read-out: FLIPR α7-HI (EC50)): 487 nM
Fc1ccc2nc(NC3=NC[C@@]4(C[N@@]5CC[C@@H]4C5)O3)sc2n1 (relative stereo) [Example 4, (3R*,4R*)—N-(5-Fluorothiazolo[5,4-b]pyridin-2-yl)-4′H-1-azaspiro[bicyclo[2.2.1]heptane-3,5′-oxazol]-2′-amine]	100 to 1000	
c1ccc2cc(NC3=NCC4(CN5CCC4C5)O3)ncc2c1 (single isomer, unassigned) [Example 16b]	< 100	
c1nc(NC2=NC[C@@]3(C[N@@]4CC[C@@H]3C4)O2)c2sccc2n1 [Example 27, (3R,4R)—N-(Thieno[3,2-d]pyrimidin-4-yl)-4′H-1-azaspiro[bicyclo[2.2.1]heptane-3,5′-oxazol]-2′-amine]	100 to 1000	
c1cnc2sc(NC3=NCC4(CN5CCC4C5)O3)nc2c1 (single isomer, unassigned) [Example 8b]	< 100	
c1ccc2cc(NC3=NC[C@@]4(C[N@]5CC[C@H]4C5)O3)ncc2c1 (relative stereo) [Example 16, (3R*,4S*)—N-(Isoquinolin-3-yl)-4′H-1-azaspiro[bicyclo[2.2.1]heptane-3,5′-oxazol]-2′-amine]	< 100	EC50 [3]: 33 nM
COc1ccc(NC2=NC[C@@]3(C[N@@]4CC[C@@H]3C4)O2)nc1 (relative stereo) [Example 10, (3R*,4R*)—N-(5-Methoxypyridin-2-yl)-4′H-1-azaspiro[bicyclo[2.2.1]heptane-3,5′-oxazol]-2′-amine]	100 to 1000	
COc1c(NC2=NC[C@@]3(C[N@@]4CC[C@@H]3C4)O2)ncnc1N1CCCC1 [Example 23, (3R,4R)—N-(5-Methoxy-6-(pyrrolidin-1-yl)pyrimidin-4-yl)-4′H-1-azaspiro[bicyclo[2.2.1]heptane-3,5′-oxazol]-2′-amine]		EC50 [2]: < 100 nM
c1cncc(-c2cc(NC3=NC[C@@]4(C[N@@]5CC[C@@H]4C5)O3)ncn2)c1 [Example 11, (3R,4R)—N-(6-(Pyridin-3-yl)pyrimidin-4-yl)-4′H-1-azaspiro[bicyclo[2.2.1]heptane-3,5′-oxazol]-2′-amine]	< 100	EC50 [3]: 34 nM
c1cn(-c2cc(NC3=NC[C@@]4(C[N@@]5CC[C@@H]4C5)O3)ncn2)cn1 [Example 19, (3R,4R)—N-(6(1H-Imidazol-1-yl)pyrimidin-4-yl)-4′H-1-azaspiro[bicyclo[2.2.1]heptane-3,5′-oxazol]-2′-amine]	< 100	EC50 [3]: 45 nM
Clc1cn(-c2cc(NC3=NC[C@@]4(C[N@@]5CC[C@@H]4C5)O3)ncn2)cn1 [Example 20, (3R,4R)—N-(6-(4-Chloro-1H-imidazol-1-yl)pyrimidin-4-yl)-4′H-1-azaspiro[bicyclo[2.2.1]heptane-3,5′-oxazol]-2′-amine]	100 to 1000	EC50 [3]: 129 nM
Cc1csc2c(NC3=NC[C@@]4(C[N@@]5CC[C@@H]4C5)O3)ncnc12 [Example 28, (3R,4R)—N-(7-Methylthieno[3,2-d]pyrimidin-4-yl)-4′H-1-azaspiro[bicyclo[2.2.1]heptane-3,5′-oxazol]-2′-amine]	100 to 1000	EC50 [3]: 222 nM
c1nc(NC2=NC[C@@]3(C[N@@]4CC[C@@H]3C4)O2)cc(-n2cncn2)n1 [Example 21, (3R,4R)—N-(6-(1H-1,2,4-Triazol-1-yl)pyrimidin-4-yl)-4′H-1-azaspiro[bicyclo[2.2.1]heptane-3,5′-oxazol]-2′-amine]	< 100	
c1ccc(-c2ccnc(NC3=NC[C@@]4(C[N@@]5CC[C@@H]4C5)O3)n2)cc1 [Example 15, (3R,4R)—N-(4-Phenylpyrimidin-2-yl)-4′H-1-azaspiro[bicyclo[2.2.1]heptane-3,5′-oxazol]-2′-amine]	< 100	
c1cnc2sc(NC3=NCC4(CN5CCC4C5)O3)nc2c1 (single isomer, unassigned) [Example 8a]	100 to 1000	EC50 [3]: 121 nM
COc1cc(NC2=NC[C@@]3(C[N@@]4CC[C@@H]3C4)O2)ncn1 [Example 13, (3R,4R)—N-(6-Methoxypyrimidin-4-yl)-4′H-1-azaspiro[bicyclo[2.2.1]heptane-3,5′-oxazol]-2′-amine]	100 to 1000	
Cc1cn(-c2cc(NC3=NC[C@@]4(C[N@@]5CC[C@@H]4C5)O3)ncn2)cn1 [Example 22, (3R,4R)—N-(6-(4-Methyl-1H-imidazol-1-yl)pyrimidin-4-yl)-4′H-1-azaspiro[bicyclo[2.2.1]heptane-3,5′-oxazol]-2′-amine]	100 to 1000	
c1cnc2sc(NC3=NC[C@@]4(C[N@]5CC[C@H]4C5)O3)nc2c1 (relative stereo) [Example 17, (3R*,4S*)—N-(Thiazolo[5,4-b]pyridin-2-yl)-4′H-1-azaspiro[bicyclo[2.2.1]heptane-3,5′-oxazol]-2′-amine]	< 100	
c1cc(-c2cc(NC3=NC[C@@]4(C[N@@]5CC[C@@H]4C5)O3)ncn2)ccn1 [Example 18, (3R,4R)—N-(6-(Pyridin-4-yl)pyrimidin-4-yl)-4′H-1-azaspiro[bicyclo[2.2.1]heptane-3,5′-oxazol]-2′-amine]	< 100	
c1ccc2nc(NC3=NC[C@@]4(C[N@@]5CC[C@@H]4C5)O3)nnc2c1 [Example 24, (3R,4R)—N-(Benzo[e][1,2,4]triazin-3-yl)-4′H-1-azaspiro[bicyclo[2.2.1]heptane-3,5′-oxazol]-2′-amine]		EC50 [2]: < 100 nM
c1cnc2sc(NC3=NC[C@@]4(C[N@@]5CC[C@@H]4C5)O3)nc2c1 (relative stereo) [Example 8, (3R*,4R*)—N-(Thiazolo[5,4-b]pyridin-2-yl)-4′H-1-azaspiro[bicyclo[2.2.1]heptane-3,5′-oxazol]-2′-amine]	100 to 1000	
Clc1ccc2nc(NC3=NC[C@@]4(C[N@@]5CC[C@@H]4C5)O3)sc2n1 (relative stereo) [Example 3, (3R*,4R*)—N-(5-Chlorothiazolo[5,4-b]pyridin-2-yl)-4′H-1-azaspiro[bicyclo[2.2.1]heptane-3,5′-oxazol]-2′-amine]	100 to 1000	EC50 [3]: 91 nM
